Experimental data: ChEMBL document CHEMBL3734705, “Synthesis and in vitro cytotoxicity of novel C-12 substituted-14-deoxy-andrographolide derivatives as potent anti-cancer agents” (2015)
Active and inactive are the calls of the source. No cut-off for these calls is given here.

Key:
[1] = test system: NCI-H23; test: Cytotoxicity against human NCI-H23 cells assessed as growth level at 10 uM after 48 hrs by SRB assay; type: functional
[2] = test system: NCI-H460; test: Cytotoxicity against human NCI-H460 cells assessed as growth level at 10 uM after 48 hrs by SRB assay; type: functional
[3] = Cytotoxicity against human HCC2998 cells assessed as growth level at 10 uM after 48 hrs by SRB assay; type: functional, HCC 2998
[4] = Cytotoxicity against human HCT116 cells assessed as growth level at 10 uM after 48 hrs by SRB assay; type: functional, HCT-116
[5] = Cytotoxicity against human HCT15 cells assessed as growth level at 10 uM after 48 hrs by SRB assay; type: functional, HCT-15
[6] = Cytotoxicity against human SF268 cells assessed as growth level at 10 uM after 48 hrs by SRB assay; type: functional, SF-268
[7] = test system: M14; test: Cytotoxicity against human M14 cells assessed as growth level at 10 uM after 48 hrs by SRB assay; type: functional
[8] = test system: SK-MEL-28; test: Cytotoxicity against human SK-MEL-28 cells assessed as growth level at 10 uM after 48 hrs by SRB assay; type: functional
[9] = test system: SK-MEL-5; test: Cytotoxicity against human SK-MEL-5 cells assessed as growth level at 10 uM after 48 hrs by SRB assay; type: functional
[10] = Cytotoxicity against human UACC62 cells assessed as growth level at 10 uM after 48 hrs by SRB assay; type: functional, UACC-62
[11] = Cytotoxicity against human IGROV1 cells assessed as growth level at 10 uM after 48 hrs by SRB assay; type: functional, IGROV-1
[12] = Cytotoxicity against human SKOV3 cells assessed as growth level at 10 uM after 48 hrs by SRB assay; type: functional, SK-OV-3
[13] = test system: A498; test: Cytotoxicity against human A498 cells assessed as growth level at 10 uM after 48 hrs by SRB assay; type: functional
[14] = test system: ACHN; test: Cytotoxicity against human ACHN cells assessed as growth level at 10 uM after 48 hrs by SRB assay; type: functional
[15] = Cytotoxicity against human Caki1 cells assessed as growth level at 10 uM after 48 hrs by SRB assay; type: functional, CAKI-1
[16] = test system: SN12C; test: Cytotoxicity against human SN12C cells assessed as growth level at 10 uM after 48 hrs by SRB assay; type: functional
[17] = Cytotoxicity against human PC3 cells assessed as growth level at 10 uM after 48 hrs by SRB assay; type: functional, PC-3
[18] = test system: MCF7; test: Cytotoxicity against human MCF7 cells assessed as growth level at 10 uM after 48 hrs by SRB assay; type: functional
[19] = test system: MDA-MB-231; test: Cytotoxicity against human MDA-MB-231 cells assessed as growth level at 10 uM after 48 hrs by SRB assay; type: functional
[20] = test system: T47D; test: Cytotoxicity against human T47D cells assessed as growth level at 10 uM after 48 hrs by SRB assay; type: functional
[21] = test system: CCRF-CEM; test: Cytotoxicity against human CCRF-CEM cells assessed as growth level at 10 uM after 48 hrs by SRB assay; type: functional
[22] = Cytotoxicity against human HL-60(TB) cells assessed as growth level at 10 uM after 48 hrs by SRB assay; type: functional
[23] = test system: NCI-H226; test: Cytotoxicity against human NCI-H226 cells assessed as growth inhibition at 10 uM after 48 hrs by SRB assay; type: functional; details: NCI-H226, 48 h, read-out: GI
[24] = test system: NCI-H460; test: Cytotoxicity against human NCI-H460 cells assessed as growth inhibition at 10 uM after 48 hrs by SRB assay; type: functional; details: NCI-H460, 48 h, read-out: GI
[25] = Cytotoxicity against human COLO205 cells assessed as growth inhibition at 10 uM after 48 hrs by SRB assay; type: functional; details: COLO 205, 48 h, read-out: GI
[26] = Cytotoxicity against human SF539 cells assessed as growth inhibition at 10 uM after 48 hrs by SRB assay; type: functional; details: SF-539, 48 h, read-out: GI
[27] = Cytotoxicity against human SNB75 cells assessed as growth inhibition at 10 uM after 48 hrs by SRB assay; type: functional; details: SNB-75, 48 h, read-out: GI
[28] = test system: U-251; test: Cytotoxicity against human U251 cells assessed as growth inhibition at 10 uM after 48 hrs by SRB assay; type: functional; details: U-251, 48 h, read-out: GI
[29] = test system: Malme-3M; test: Cytotoxicity against human MALME-3M cells assessed as growth inhibition at 10 uM after 48 hrs by SRB assay; type: functional; details: read-out: GI
[30] = test system: M14; test: Cytotoxicity against human M14 cells assessed as growth inhibition at 10 uM after 48 hrs by SRB assay; type: functional; details: M14, 48 h, read-out: GI
[31] = Cytotoxicity against human UACC257 cells assessed as growth inhibition at 10 uM after 48 hrs by SRB assay; type: functional; details: UACC-257, 48 h, read-out: GI
[32] = Cytotoxicity against human UACC62 cells assessed as growth inhibition at 10 uM after 48 hrs by SRB assay; type: functional; details: UACC-62, 48 h, read-out: GI
[33] = Cytotoxicity against human OVCAR4 cells assessed as growth inhibition at 10 uM after 48 hrs by SRB assay; type: functional; details: OVCAR-4, 48 h, read-out: GI
[34] = Cytotoxicity against human OVCAR8 cells assessed as growth inhibition at 10 uM after 48 hrs by SRB assay; type: functional; details: OVCAR-8, 48 h, read-out: GI
[35] = Cytotoxicity against human NCI-ADR-RES cells assessed as growth inhibition at 10 uM after 48 hrs by SRB assay; type: functional; details: read-out: GI
[36] = test system: A498; test: Cytotoxicity against human A498 cells assessed as growth inhibition at 10 uM after 48 hrs by SRB assay; type: functional; details: A498, 48 h, read-out: GI
[37] = test system: ACHN; test: Cytotoxicity against human ACHN cells assessed as growth inhibition at 10 uM after 48 hrs by SRB assay; type: functional; details: read-out: GI
[38] = test system: SN12C; test: Cytotoxicity against human SN12C cells assessed as growth inhibition at 10 uM after 48 hrs by SRB assay; type: functional; details: read-out: GI
[39] = Cytotoxicity against human DU145 cells assessed as growth inhibition at 10 uM after 48 hrs by SRB assay; type: functional; details: DU-145, 48 h, read-out: GI
[40] = test system: MCF7; test: Cytotoxicity against human MCF7 cells assessed as growth inhibition at 10 uM after 48 hrs by SRB assay; type: functional; details: MCF7, 48 h, read-out: GI
[41] = test system: MDA-MB-231; test: Cytotoxicity against human MDA-MB-231 cells assessed as growth inhibition at 10 uM after 48 hrs by SRB assay; type: functional

Molecule `C=C1CC[C@@H]2[C@](C)(COC(C)=O)[C@H](OC(C)=O)CC[C@@]2(C)[C@@H]1CC(Nc1ccc(S(=O)(=O)NC(C)=O)cc1)C1=CCOC1=O` (mixture of isomers) has an Activity [1] of 7.36%, an Activity [2] of 5.29% and an Activity [3] of -12.74%. For the same molecule, the Activity [4] was -63.92%, the Activity [5] was -49.53% and the Activity [6] was 6.72%. It also gave an Activity [7] of -35.08%, an Activity [8] of -36.62% and an Activity [9] of 7.36%. For the same molecule, the Activity [10] was -12.47%, the Activity [11] was -10.04% and the Activity [12] was 67.34%. For the same molecule, the Activity [13] was 73.42%, the Activity [14] was -63.23% and the Activity [15] was 30.25%. It also gave an Activity [16] of 1.94%, an Activity [17] of 0.69% and an Activity [18] of -33.6%. It also gave an Activity [19] of -38.71%, an Activity [20] of -3.67% and an Activity [21] of -27.89%. For the same molecule, the Activity [22] was -31.09%.

`C=C1CC[C@@H]2[C@](C)(COC(C)=O)[C@H](OC(C)=O)CC[C@@]2(C)[C@@H]1CC(Sc1ccccc1)C1=CCOC1=O` (mixture of isomers) showed an Activity [1] of 24.46%, an Activity [2] of 21.71% and an Activity [3] of 44.69%. It also gave an Activity [4] of -34.58%, an Activity [5] of -38.36% and an Activity [6] of 11.62%. For the same molecule, the Activity [7] was -4.19%, the Activity [8] was 6.34% and the Activity [9] was 13.51%. For the same molecule, the Activity [10] was -1.75%, the Activity [11] was 25.2% and the Activity [12] was 57.71%. For the same molecule, the Activity [13] was 86.34%, the Activity [14] was -13.74% and the Activity [15] was 90.6%. The Activity [16] was 1.3%, the Activity [17] was 36.43% and the Activity [18] was 2.14%. The Activity [19] was 7.4%, the Activity [20] was 7.94% and the Activity [21] was -5.24%. The Activity [22] was -46.54%.

`C=C1CC[C@@H]2[C@](C)(CO)[C@H](O)CC[C@@]2(C)[C@@H]1C/C=C1/C(=O)OC[C@H]1O` [ANDROGRAPHOLIDE] gave an Activity [1] of 97.89%, an Activity [2] of 97.98% and an Activity [3] of 114.39%. It also gave an Activity [4] of 60.01%, an Activity [5] of 61.89% and an Activity [6] of 97.66%. The Activity [7] was 84.88%, the Activity [8] was 95.46% and the Activity [9] was 77.27%. The Activity [10] was 69.92%, the Activity [11] was 103.71% and the Activity [12] was 103.76%. The Activity [13] was 87.79%, the Activity [14] was 89.75% and the Activity [15] was 96.7%. For the same molecule, the Activity [16] was 81.73%, the Activity [17] was 93.4% and the Activity [18] was 57.55%. The Activity [19] was 106.75%, the Activity [20] was 87.76% and the inhibition of growth at 10 µM [23] was 8.26%. For the same molecule, the inhibition of growth at 10 µM [24] was 2.02%, the inhibition of growth at 10 µM [25] was 5.1% and the inhibition of growth at 10 µM [26] was 16.6%. For the same molecule, the inhibition of growth at 10 µM [27] was 38%, the inhibition of growth at 10 µM [28] was 24.2% and the inhibition of growth at 10 µM [29] was 0.22%. It also gave an inhibition of growth at 10 µM [30] of 15.1%, an inhibition of growth at 10 µM [31] of 23.5% and an inhibition of growth at 10 µM [32] of 30.1%. The inhibition of growth at 10 µM [33] was 17.1%, the inhibition of growth at 10 µM [34] was 15.5% and the inhibition of growth at 10 µM [35] was 16.5%. The inhibition of growth at 10 µM [36] was 12.2%, the inhibition of growth at 10 µM [37] was 10.2% and the inhibition of growth at 10 µM [38] was 18.3%. For the same molecule, the inhibition of growth at 10 µM [39] was 19.9%, the inhibition of growth at 10 µM [40] was 42.2% and the “growth inhibition (GI)” value [41] was “inactive”. The Activity [21] was 23.48% and the Activity [22] was 100.04%.
